Where two headings read alike, the source gives them in different places.
Assay: Solubility in organic solvents
Assay type: physicochemical
Conditions: organic solvent or mixture, thermodynamic from solid
[1] = 5 mg in 1 mL anisole, read-out: Solubility Anisole
[2] = 5 mg in 1 mL chloroform, read-out: Solubility Chloroform
[3] = 5 mg in 1 mL tetrahydrofuran, read-out: Solubility Tetrahydrofuran
[4] = 5 mg in 1 mL tetralin, read-out: Solubility Tetralin
[5] = 5 mg in 1 mL toluene, read-out: Solubility Toluene

Measured: solubility

CC(C)[Si](C#Cc1cc2c(cc(C#C[Si](C(C)C)(C(C)C)C(C)C)c3c4ccsc4ccc23)c2ccc3sccc3c12)(C(C)C)C(C)C [Compound 1]
> 5000 µg/mL: [1] | [2] | [3] | [4] | [5]

CC(C)[Si](C#Cc1cc2c(cc(C#C[Si](C(C)C)(C(C)C)C(C)C)c3c2ccc2ccsc23)c2ccc3ccsc3c12)(C(C)C)C(C)C [Compound 2]
> 5000 µg/mL: [1] | [2] | [3] | [4] | [5]

CC(C)[Si](C#Cc1cc2c(cc(C#C[Si](C(C)C)(C(C)C)C(C)C)c3c4cc(F)sc4ccc23)c2ccc3sc(F)cc3c12)(C(C)C)C(C)C [Compound 3]
> 5000 µg/mL: [1] | [2] | [3] | [4] | [5]

CC(C)[Si](C#Cc1cc2c(cc(C#C[Si](C(C)C)(C(C)C)C(C)C)c3c2ccc2cc(F)sc23)c2ccc3cc(F)sc3c12)(C(C)C)C(C)C [Compound 4]
> 5000 µg/mL: [1] | [2] | [3] | [4] | [5]

From US10622572B2, “Organic thin-film transistor and method for manufacturing the same, material for organic thin-film transistor, composition for organic thin-film transistor, compound, and organic semiconductor film” (FUJIFILM Corporation, priority 2015, dated 2020)
